The text below walks through data of US9346809B2 (LEO PHARMA A/S, priority 2009, dated 2016).

Common to all, as to assay type: biochemical
The target in assay [1] is T1, JAK1 (aa 850-1154, catalytic domain, GST-tag) (Homo sapiens, UniProt P23458).
T1 construct: JAK1 (aa 850-1154) and TYK2 (aa 871-1187) are expressed with an N-terminally fused GST-tag; GST (N); purchased Carna Biosciences, Inc; host or cells: baculovirus expression system
In words: JAK kinase assay (HTRF, phosphorylation of TK substrate-biotin), JAK1. Particulars: HTRF assay, ATP at Km (7 μM); read-out: JAK1 kinase inhibitory activity (EC50 indicator). In a few lines:
(§1)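 Compound was mixed with TK substrate-biotin (1 μM final), then kinase plus ATP at its Km was added and left 20-30 min at room temperature. Detection mix with EDTA, Streptavidin-XL665 and STK Ab Cryptate stopped the reaction; after overnight dark incubation, HTRF was read and EC50 derived.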

For assay [2], the target named is T2, JAK3 (catalytic domain, His-tag) (Homo sapiens, UniProt P52333).
T2 construct: All four purified enzymes contain only the catalytic domain; His (N); purchased Carna Biosciences, Inc; host or cells: baculovirus expression system
Description: JAK kinase assay (HTRF, phosphorylation of TK substrate-biotin), JAK3. Conditions: HTRF assay, ATP at Km (2 μM); read-out: JAK3 kinase inhibitory activity (EC50 indicator). The method, boiled down: as §1

The target of assay [3] is T3, JAK2 (catalytic domain, His-tag) (Homo sapiens, UniProt O60674).
T3 construct: All four purified enzymes contain only the catalytic domain; His (N); purchased Carna Biosciences, Inc; host or cells: baculovirus expression system
Description: JAK kinase assay (HTRF, phosphorylation of TK substrate-biotin), JAK2. Particulars: HTRF assay, ATP at Km (4 μM); read-out: JAK2 kinase inhibitory activity (EC50 indicator). The method, boiled down:
as §1

Assay [4] concerns the target T4, TYK2 (aa 871-1187, catalytic domain, GST-tag) (Homo sapiens, UniProt P29597).
T4 construct: JAK1 (aa 850-1154) and TYK2 (aa 871-1187) are expressed with an N-terminally fused GST-tag; GST (N); purchased Carna Biosciences, Inc; host or cells: baculovirus expression system
T4 sequence (P29597 871-1187): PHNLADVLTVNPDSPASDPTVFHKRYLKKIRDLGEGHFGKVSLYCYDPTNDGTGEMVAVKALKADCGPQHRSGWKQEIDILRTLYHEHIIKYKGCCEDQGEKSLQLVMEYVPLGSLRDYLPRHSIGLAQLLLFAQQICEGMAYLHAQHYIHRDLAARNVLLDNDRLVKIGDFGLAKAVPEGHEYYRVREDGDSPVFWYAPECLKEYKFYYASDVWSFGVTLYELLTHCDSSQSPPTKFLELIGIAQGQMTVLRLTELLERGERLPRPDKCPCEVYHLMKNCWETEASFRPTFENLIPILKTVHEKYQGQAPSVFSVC
In words: JAK kinase assay (HTRF, phosphorylation of TK substrate-biotin), TYK2. Conditions: HTRF assay, ATP at Km (13 μM); read-out: TYK2 kinase inhibitory activity (EC50 indicator). In a few lines: as §1

T3 sequence (O60674 849-1124 limits assumed): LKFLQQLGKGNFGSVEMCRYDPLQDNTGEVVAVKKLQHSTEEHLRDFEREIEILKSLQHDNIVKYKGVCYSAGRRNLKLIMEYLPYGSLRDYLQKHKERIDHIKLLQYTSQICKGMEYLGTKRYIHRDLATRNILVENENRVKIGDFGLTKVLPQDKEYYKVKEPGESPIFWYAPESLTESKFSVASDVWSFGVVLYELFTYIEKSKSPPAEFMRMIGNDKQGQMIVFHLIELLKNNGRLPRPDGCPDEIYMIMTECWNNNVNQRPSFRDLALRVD
T1 sequence (P23458 850-1154): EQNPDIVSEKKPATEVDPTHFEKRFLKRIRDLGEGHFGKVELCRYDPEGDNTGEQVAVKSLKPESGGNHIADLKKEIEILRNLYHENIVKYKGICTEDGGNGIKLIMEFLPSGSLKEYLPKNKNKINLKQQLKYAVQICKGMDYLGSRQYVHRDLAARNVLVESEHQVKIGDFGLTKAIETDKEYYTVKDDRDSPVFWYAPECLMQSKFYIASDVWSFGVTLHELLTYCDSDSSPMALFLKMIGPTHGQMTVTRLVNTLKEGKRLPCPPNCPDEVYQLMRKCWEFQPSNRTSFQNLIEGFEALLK
T2 sequence (P52333 822-1111 limits assumed): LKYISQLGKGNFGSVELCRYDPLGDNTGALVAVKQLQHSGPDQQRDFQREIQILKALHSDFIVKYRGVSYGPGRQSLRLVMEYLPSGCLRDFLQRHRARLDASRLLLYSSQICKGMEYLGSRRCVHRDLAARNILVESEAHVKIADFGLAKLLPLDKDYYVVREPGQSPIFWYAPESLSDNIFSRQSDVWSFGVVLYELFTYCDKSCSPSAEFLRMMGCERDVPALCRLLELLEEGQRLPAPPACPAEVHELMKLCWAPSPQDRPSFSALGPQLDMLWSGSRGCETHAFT

Consider `Nc1nc(N2CCN(C(=O)c3cnc4ccccc4n3)C3(CC3)C2)c2cc[nH]c2n1` [Example 305, [7-(2-Amino-7H-pyrrolo[2,3-d]pyrimidin-4-yl)-4,7-diaza-spiro[2.5]oct-4-yl]-quinoxalin-2-yl-methanone], for which the EC50 in assay [1] was less than 0.1 µM; in assay [2] it was 0.1 to 0.5 µM; in assay [3] it was less than 0.1 µM; in assay [4], 0.1 to 0.5 µM.
On to `N#CCc1cccc(CC(=O)N2CCN(c3nc(N)nc4[nH]ccc34)CC23CC3)c1` [Example 306, (3-{2-[7-(2-Amino-7H-pyrrolo[2,3-d]pyrimidin-4-yl)-4,7-diaza-spiro[2.5]oct-4-yl]-2-oxo-ethyl}-phenyl)-acetonitrile], for which the EC50 in assay [1] was 0.1 to 0.5 µM; in assay [2] it was 0.1 to 0.5 µM; in assay [3] it was 0.1 to 0.5 µM; in assay [4], greater than 0.5 µM.
Regarding `N#CCc1ccc(CC(=O)N2CCN(c3nc(N)nc4[nH]ccc34)CC23CC3)cc1` [Example 307, (4-{2-[7-(2-Amino-7H-pyrrolo[2,3-d]pyrimidin-4-yl)-4,7-diaza-spiro[2.5]oct-4-yl]-2-oxo-ethyl}-phenyl)-acetonitrile], the concentration for a half-maximal effect (EC50) in assay [1] was 0.1 to 0.5 µM; in assay [2], 0.1 to 0.5 µM; in assay [3], 0.1 to 0.5 µM; in assay [4], greater than 0.5 µM.
For the molecule `N#CC1(C(=O)N2CCN(c3nc(N)nc4[nH]ccc34)CC23CC3)CC1` [Example 308, 1-[7-(2-Amino-7H-pyrrolo[2,3-d]pyrimidin-4-yl)-4,7-diaza-spiro[2.5]octane-4-carbonyl]-cyclopropanecarbonitrile], the EC50 in assay [1] is 0.1 to 0.5 µM; in assay [2], 0.1 to 0.5 µM; in assay [3], less than 0.1 µM; in assay [4], greater than 0.5 µM.
For the molecule `Nc1nc(N2CCN(C(=O)Cc3ccc(C(F)(F)F)cc3)C3(CC3)C2)c2cc[nH]c2n1` [Example 309, 1-[7-(2-Amino-7H-pyrrolo[2,3-d]pyrimidin-4-yl)-4,7-diaza-spiro[2.5]oct-4-yl]-2-(4-trifluoromethyl-phenyl)-ethanone], the half-maximal effective concentration (EC50) in assay [1] is less than 0.1 µM; in assay [2], less than 0.1 µM; in assay [3] it was less than 0.1 µM; in assay [4], greater than 0.5 µM.
As for `N#CCCCC(=O)N1CCN(c2nc(N)nc3[nH]ccc23)CC12CC2` [Example 310, 5-[7-(2-Amino-7H-pyrrolo[2,3-d]pyrimidin-4-yl)-4,7-diaza-spiro[2.5]oct-4-yl]-5-oxo-pentanenitrile], the EC50 in assay [1] is less than 0.1 µM; in assay [2] it was less than 0.1 µM; in assay [3] it was less than 0.1 µM; in assay [4], greater than 0.5 µM.
With `N#Cc1cccc(CC(=O)N2CCN(c3nc(N)nc4[nH]ccc34)CC23CC3)c1` [Example 311, 3-{2-[7-(2-Amino-7H-pyrrolo[2,3-d]pyrimidin-4-yl)-4,7-diaza-spiro[2.5]oct-4-yl]-2-oxo-ethyl}-benzonitrile], the EC50 in assay [1] is 0.1 to 0.5 µM; in assay [2] it was 0.1 to 0.5 µM; in assay [3], 0.1 to 0.5 µM; in assay [4] it was greater than 0.5 µM.
In the case of `N#Cc1ccc(CC(=O)N2CCN(c3nc(N)nc4[nH]ccc34)CC23CC3)cc1` [Example 312, 4-{2-[7-(2-Amino-7H-pyrrolo[2,3-d]pyrimidin-4-yl)-4,7-diaza-spiro[2.5]oct-4-yl]-2-oxo-ethyl}-benzonitrile], the EC50 in assay [1] was less than 0.1 µM; in assay [2], less than 0.1 µM; in assay [3], less than 0.1 µM; in assay [4], 0.1 to 0.5 µM.
As to `N#CCCC(=O)N1CCN(c2nc(N)nc3[nH]ccc23)CC12CC2` [Example 313, 4-[7-(2-Amino-7H-pyrrolo[2,3-d]pyrimidin-4-yl)-4,7-diaza-spiro[2.5]oct-4-yl]-4-oxo-butyronitrile], the 50% effective concentration (EC50) was less than 0.1 µM in assay [1], less than 0.1 µM in assay [2], less than 0.1 µM in assay [3] and 0.1 to 0.5 µM in assay [4].
As for `O=C(c1cnccn1)N1CCN(c2ncnc3[nH]cc(Cl)c23)CC12CC2` [Example 314, [7-(5-Chloro-7H-pyrrolo[2,3-d]pyrimidin-4-yl)-4,7-diaza-spiro[2.5]oct-4-yl]-pyrazin-2-yl-methanone], the EC50 in assay [1] is greater than 0.5 µM; in assay [2], greater than 0.5 µM; in assay [3], 0.1 to 0.5 µM; in assay [4] it was greater than 0.5 µM.
With `N#Cc1ccc(C(=O)N2CCN(c3ncnc4[nH]cc(Cl)c34)CC23CC3)cc1` [Example 315, 4-[7-(5-Chloro-7H-pyrrolo[2,3-d]pyrimidin-4-yl)-4,7-diaza-spiro[2.5]octane-4-carbonyl]-benzonitrile], the EC50 in assay [1], in assay [2], in assay [3] and in assay [4] was greater than 0.5 µM throughout.
For the molecule `N#Cc1cccc(C(=O)N2CCN(c3ncnc4[nH]cc(Cl)c34)CC23CC3)c1` [Example 316, 3-[7-(5-Chloro-7H-pyrrolo[2,3-d]pyrimidin-4-yl)-4,7-diaza-spiro[2.5]octane-4-carbonyl]-benzonitrile], the EC50 in assay [1] was greater than 0.5 µM; in assay [2], 0.1 to 0.5 µM; in assay [3], 0.1 to 0.5 µM; in assay [4] it was greater than 0.5 µM.
`O=C(c1cnc2ccccc2n1)N1CCN(c2ncnc3[nH]cc(Cl)c23)CC12CC2` [Example 317, [7-(5-Chloro-7H-pyrrolo[2,3-d]pyrimidin-4-yl)-4,7-diaza-spiro[2.5]oct-4-yl]-quinoxalin-2-yl-methanone]: the EC50 in assay [1] is greater than 0.5 µM; in assay [2], greater than 0.5 µM; in assay [3] it was 0.1 to 0.5 µM; in assay [4], greater than 0.5 µM.
Consider `N#CCc1cccc(CC(=O)N2CCN(c3ncnc4[nH]cc(Cl)c34)CC23CC3)c1` [Example 318, (3-{2-[7-(5-Chloro-7H-pyrrolo[2,3-d]pyrimidin-4-yl)-4,7-diaza-spiro[2.5]oct-4-yl]-2-oxo-ethyl}-phenyl)-acetonitrile], for which the concentration for a half-maximal effect (EC50) in assay [1], in assay [2], in assay [3] and in assay [4] was greater than 0.5 µM in each case.
As to `N#CCc1ccc(CC(=O)N2CCN(c3ncnc4[nH]cc(Cl)c34)CC23CC3)cc1` [Example 319, (4-{2-[7-(5-Chloro-7H-pyrrolo[2,3-d]pyrimidin-4-yl)-4,7-diaza-spiro[2.5]oct-4-yl]-2-oxo-ethyl}-phenyl)-acetonitrile], the EC50 is greater than 0.5 µM in assay [1], 0.1 to 0.5 µM in assay [2], 0.1 to 0.5 µM in assay [3] and greater than 0.5 µM in assay [4].
Take `O=C(Cc1ccc(F)cc1)N1CCN(c2ncnc3[nH]cc(Cl)c23)CC12CC2` [Example 320, 1-[7-(5-Chloro-7H-pyrrolo[2,3-d]pyrimidin-4-yl)-4,7-diaza-spiro[2.5]oct-4-yl]-2-(4-fluoro-phenyl)-ethanone]: the EC50 was 0.1 to 0.5 µM in assay [1], 0.1 to 0.5 µM in assay [2], less than 0.1 µM in assay [3] and greater than 0.5 µM in assay [4].
Take `O=C(Cc1ccc(C(F)(F)F)cc1)N1CCN(c2ncnc3[nH]cc(Cl)c23)CC12CC2` [Example 321, 1-[7-(5-Chloro-7H-pyrrolo[2,3-d]pyrimidin-4-yl)-4,7-diaza-spiro[2.5]oct-4-yl]-2-(4-trifluoromethyl-phenyl)-ethanone]: the half-maximal effective concentration (EC50) in assay [1] is 0.1 to 0.5 µM; in assay [2] it was less than 0.1 µM; in assay [3], 0.1 to 0.5 µM; in assay [4] it was greater than 0.5 µM.
As to `N#CCCCC(=O)N1CCN(c2ncnc3[nH]cc(Cl)c23)CC12CC2` [Example 322, 5-[7-(5-Chloro-7H-pyrrolo[2,3-d]pyrimidin-4-yl)-4,7-diaza-spiro[2.5]oct-4-yl]-5-oxo-pentanenitrile], the 50% effective concentration (EC50) is greater than 0.5 µM in assay [1], 0.1 to 0.5 µM in assay [2], greater than 0.5 µM in assay [3] and greater than 0.5 µM in assay [4].
